Measured values reported in paper PMC2822779, “A glycine receptor is involved in the organization of swimming movements in an invertebrate chordate” (BMC Neuroscience, 2010).
pEC50: −log10 of the molar value.

Biological target: T1, Ci-GlyR (Ciona intestinalis, UniProt D2KU21)
T1 construct: single subunit expressed alone; no tag stated; cDNA from hatched larvae
T1 sequence (D2KU21 25-491): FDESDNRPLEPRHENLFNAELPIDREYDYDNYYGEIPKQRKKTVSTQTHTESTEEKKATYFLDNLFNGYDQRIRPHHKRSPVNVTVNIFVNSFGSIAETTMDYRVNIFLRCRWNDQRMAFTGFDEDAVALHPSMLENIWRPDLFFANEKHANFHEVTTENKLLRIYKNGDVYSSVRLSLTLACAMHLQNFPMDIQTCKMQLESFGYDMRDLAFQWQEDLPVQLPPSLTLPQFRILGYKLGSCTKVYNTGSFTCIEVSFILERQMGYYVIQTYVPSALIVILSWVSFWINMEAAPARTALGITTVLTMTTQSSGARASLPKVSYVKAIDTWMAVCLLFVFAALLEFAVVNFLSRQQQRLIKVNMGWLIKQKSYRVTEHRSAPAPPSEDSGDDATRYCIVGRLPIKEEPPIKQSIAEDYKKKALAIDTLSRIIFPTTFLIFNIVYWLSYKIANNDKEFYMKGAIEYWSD
Test: two-electrode voltage clamp, Xenopus oocytes
Assay type: cell-based

pEC50: ~3.12
SMILES: NCC(=O)O [glycine]
